Assay results: patent US20060069132A1, “Azolecarboxamide herbicides” (priority 2004, published 2006)

Assays:
[1] = test system: small flower umbrella sedge; test: Test B flooded paddy test; type: in vivo, Cyperus difformis; conditions: 1000 g ai/ha, visual rating, scale 0 to 100 (0 no effect, 100 complete control), 13 to 15 days
In short: (§1)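 Formulated test chemicals went onto postemergence plants measuring 2 to 18 cm, at one to four leaves. For the paddy assay, species had reached two leaves. Scoring took place 13–15 days later by eye, relative to untreated plants, using 0 for no effect up to 100 for full control.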

[2] = test system: wild oat; test: Test B postemergence herbicide test; type: in vivo, Avena fatua; conditions: scale 0 (no effect) to 100 (complete control)
In short: (§2)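 Visual ratings, 0 (no effect) to 100 (complete control), made versus controls after 13–15 d greenhouse. Paddy plants treated at 2-leaf stage; postemergence plants at 1- to 4-leaf stage, 2–18 cm tall.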

[3] = test system: wheat; test: Test B postemergence herbicide test; type: in vivo, Triticum aestivum; set-up: key to Wheat plant response rating: 0 = no effect, 100 = complete control; conditions: scale 0 (no effect) to 100 (complete control)
In short: as §2

[4] = test system: barnyardgrass; test: Test B pre-/postemergence herbicide test; type: in vivo, Echinochloa crus-galli
In short: (§3)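 Plants compared with untreated controls 13–15 days post-treatment and given a visual 0–100 injury score. Applications: preemergence to seeds; postemergence at 1- to 4-leaf (2–18 cm); paddy species flooded, 2-leaf stage. Vehicle non-phytotoxic, surfactant included.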

[5] = test system: redroot pigweed; test: Test A pre-/postemergence herbicide test; type: in vivo, Amaranthus retroflexus; conditions: for Plant response rating, Pigweed: Postemergence; for Pigweed plant response rating: Preemergence
In short: (§4)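 Visual injury rating on a 0–100 scale (0 no effect, 100 complete control) versus untreated controls, about ten days after treatment in greenhouse. Pre: directed soil spray onto seeded sandy loam. Post: spray to runoff on plants 2–10 cm tall at one- to two-leaf stage.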

[6] = test system: velvetleaf; test: Test A pre-/postemergence herbicide test; type: in vivo, Abutilon theophrasti; conditions: for Velvetleaf plant response rating: Preemergence, visual rating, 0 to 100 scale (0 no effect, 100 complete control)
In short: as §4

[7] = test system: giant foxtail; test: Test A pre-/postemergence herbicide test; type: in vivo, Setaria faberi; conditions: for Plant response rating, Foxtail, Giant: Postemergence; for Foxtail, Giant plant response rating: Preemergence
In short: as §4

[8] = test system: large crabgrass; test: Test B pre-/postemergence herbicide test; type: in vivo, Digitaria sanguinalis
In short: (§5)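 Pre: seeds sown, then sprayed. Post: 1–4-leaf plants (2–18 cm) sprayed at the same time. Paddy: flooded, treated at 2-leaf stage. Formulation: non-phytotoxic solvent with surfactant. Greenhouse 13–15 days; visual 0–100 score relative to controls.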

[9] = test system: blackgrass; test: Test B postemergence herbicide test; type: in vivo, Alopecurus myosuroides; conditions: scale 0 (no effect) to 100 (complete control)
In short: as §1

[10] = test system: morningglory; test: Test A pre-/postemergence herbicide test; type: in vivo, Ipomoea spp.; conditions: for Plant response rating, Morningglory: Postemergence; for Morningglory plant response rating: Preemergence
In short: as §4

[11] = test system: giant foxtail; test: Test B pre-/postemergence herbicide test; type: in vivo, Setaria faberi
In short: as §5

[12] = test system: Surinam grass; test: Test B pre-/postemergence herbicide test; type: in vivo, Urochloa decumbens
In short: as §5

[13] = test system: large crabgrass; test: Test A pre-/postemergence herbicide test; type: in vivo, Digitaria sanguinalis; conditions: for Plant response rating, Crabgrass, Large: Postemergence; for Crabgrass, Large plant response rating: Preemergence
In short: as §4

[14] = test system: lambsquarters; test: Test B pre-/postemergence herbicide test; type: in vivo, Chenopodium album; conditions: scale 0 (no effect) to 100 (complete control)
In short: as §5

[15] = test system: corn; test: Test B pre-/postemergence herbicide test; type: in vivo, Zea mays
In short: as §5

[16] = test system: pigweed; test: Test B pre-/postemergence herbicide test; type: in vivo, Amaranthus retroflexus
In short: as §5

[17] = test system: morningglory; test: Test B pre-/postemergence herbicide test; type: in vivo, Ipomoea coccinea
In short: as §3

[18] = test system: rice; test: Test B flooded paddy test; type: in vivo, Oryza sativa; conditions: 1000 g ai/ha, visual rating, scale 0 to 100 (0 no effect, 100 complete control), 13 to 15 days
In short: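 Plants grow to 1- to 4-leaf stage (2–18 cm) for postemergence spraying, or to 2-leaf stage for the paddy test. Formulated compound is applied. Greenhouse holding lasts 13–15 days. Response is scored visually relative to controls, 0 no effect to 100 complete control; a dash means no result.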

[19] = test system: ducksalad; test: Test B flooded paddy test; type: in vivo, Heteranthera limosa; conditions: 1000 g ai/ha, visual rating, scale 0 to 100 (0 no effect, 100 complete control), 13 to 15 days
In short: as §1

[20] = test system: barnyardgrass; test: Test A pre-/postemergence herbicide test; type: in vivo, Echinochloa crus-galli; conditions: for Plant response rating, Barnyardgrass: Postemergence; for Barnyardgrass plant response rating: Preemergence
In short: as §4

[21] = test system: rice; test: Test B pre-/postemergence herbicide test; type: in vivo, Oryza sativa; conditions: preemergence, 125 g ai/ha; 0 to 100 scale, 0 is no effect, 100 is complete control
In short: as §5

[22] = test system: barnyardgrass; test: Test B flooded paddy test; type: in vivo, Echinochloa crus-galli; conditions: 1000 g ai/ha, visual rating, scale 0 to 100 (0 no effect, 100 complete control), 13 to 15 days
In short: as §1

[23] = test system: velvetleaf; test: Test B pre-/postemergence herbicide test; type: in vivo, Abutilon theophrasti
In short: as §5

[24] = test system: cocklebur; test: Test B pre-/postemergence herbicide test; type: in vivo, Xanthium strumarium
In short: as §3

[25] = Postemergence, 500 g ai/ha, visual rating after 13 to 15 days
[26] = postemergence, 125 g ai/ha, visual rating
[27] = Postemergence, 500 g ai/ha, visual rating after 13 to 15 days, scale 0 (no effect) to 100 (complete control)
[28] = Preemergence, 500 g ai/ha, scale 0 to 100
[29] = postemergence, 125 g ai/ha, visual rating, scale 0 (no effect) to 100 (complete control)
[30] = preemergence, 125 g ai/ha, 0 to 100 scale, 0 is no effect, 100 is complete control
[31] = 500 g ai/ha, 0 to 100 scale, 0 no effect, 100 complete control
[32] = 2000 g ai/ha, 0 to 100 scale, 0 no effect, 100 complete control
[33] = 500 g ai/ha, visual rating, 0 to 100 scale (0 no effect, 100 complete control)

## CCOC(=O)c1ccc(F)c(NC(=O)c2cc(C(C)(C)C)nn2CC)c1 [Compound 70]
[1]
  Sedge, Umbrella plant response rating: 30
[2]; [25]
  Plant response rating, Oat, Wild: 20
[2]; [26]
  Oat, Wild plant response rating: 20
[3]; [25]
  Plant response rating, Wheat: 20
[3]; [26]
  Wheat plant response rating: 10
[4]; [27]
  Plant response rating, Barnyardgrass: 20
[4]; [28]
  Barnyardgrass plant response rating: 50
[4]; [29]
  Barnyardgrass plant response rating: 20
[4]; [30]
  Plant response rating, Barnyardgrass: 40
[5]; [31]
  Plant response rating, Pigweed: 60
[5]; [32]
  Plant response rating, Pigweed: 75
  Pigweed plant response rating: 5
[5]; [33]
  Pigweed plant response rating: 0
[6]; Postemergence, 2000 g ai/ha, 0 to 100 scale, 0 no effect, 100 complete control
  Plant response rating, Velvetleaf: 30
[6]; 500 g ai/ha
  Velvetleaf plant response rating: 10
[6]; 2000 g ai/ha
  Velvetleaf plant response rating: 20
[7]; [31]
  Plant response rating, Foxtail, Giant: 20
[7]; [32]
  Plant response rating, Foxtail, Giant: 20
  Foxtail, Giant plant response rating: 55
[7]; [33]
  Foxtail, Giant plant response rating: 40
[8]; [27]
  Plant response rating, Crabgrass, Large: 20
[8]; [28]
  Crabgrass, Large plant response rating: 100
[8]; [29]
  Crabgrass, Large plant response rating: 20
[8]; [30]
  Plant response rating, Crabgrass, Large: 100
[9]; [25]
  Plant response rating, Blackgrass: 20
[9]; [26]
  Blackgrass plant response rating: 10
[10]; [31]
  Plant response rating, Morningglory: 25
[10]; [32]
  Plant response rating, Morningglory: 30
  Morningglory plant response rating: 10
[10]; [33]
  Morningglory plant response rating: 20
[11]; [27]
  Plant response rating, Foxtail, Giant: 30
[11]; [28]
  Foxtail, Giant plant response rating: 100
[11]; [29]
  Foxtail, Giant plant response rating: 20
[11]; [30]
  Plant response rating, Foxtail, Giant: 90
[12]; [27]
  Plant response rating, Surinam Grass: 20
[12]; [29]
  Surinam Grass plant response rating: 20
[12]; [30]
  Plant response rating, Surinam Grass: 40
[13]; [31]
  Plant response rating, Crabgrass, Large: 25
[13]; [32]
  Plant response rating, Crabgrass, Large: 30
  Crabgrass, Large plant response rating: 45
[13]; [33]
  Crabgrass, Large plant response rating: 35
[14]; [25]
  Plant response rating, Lambsquarters: 80
[14]; [26]
  Lambsquarters plant response rating: 80
[15]; [27]
  Plant response rating, Corn: 20
[15]; [28]
  Corn plant response rating: 20
[15]; [29]
  Corn plant response rating: 20
[15]; [30]
  Plant response rating, Corn: 10
[16]; [27]
  Plant response rating, Pigweed: 50
[16]; [29]
  Pigweed plant response rating: 30
[16]; [30]
  Plant response rating, Pigweed: 30
[17]; [27]
  Plant response rating, Morningglory: 30
[17]; [29]
  Morningglory plant response rating: 20
[17]; [30]
  Plant response rating, Morningglory: 10
[18]
  Rice plant response rating: 10
[19]
  Ducksalad plant response rating: 0
[20]; [31]
  Plant response rating, Barnyardgrass: 25
[20]; [32]
  Plant response rating, Barnyardgrass: 30
  Barnyardgrass plant response rating: 20
[20]; [33]
  Barnyardgrass plant response rating: 20
[21]
  Plant response rating, Rice: 0
[22]
  Barnyardgrass plant response rating: 10
[23]; [27]
  Plant response rating, Velvetleaf: 60
[23]; [29]
  Velvetleaf plant response rating: 20
[23]; [30]
  Plant response rating, Velvetleaf: 30
[24]; [27]
  Plant response rating, Cocklebur: 100
[24]; [28]
  Cocklebur plant response rating: 0
[24]; [29]
  Cocklebur plant response rating: 50
[24]; [30]
  Plant response rating, Cocklebur: 0
